# Assay results from patent US12295365B2, “Composition including an antimicrobial boosting agent including a sultaine and methods of increasing the antimicrobial effectiveness of a composition” (KIMBERLY-CLARK WORLDWIDE, INC., priority 2018, dated 2025).
# Counter-ions that a name gives are not always drawn.
# System: B. cepacia (ATCC 25416)
# Experiment: Minimum Effective Concentration (MEC) Test Method
# Type: cell-based, Burkholderia cepacia
# Conditions: boosting agent (the label) at 5 mmol/L; 24 hours at room temperature
# Method: Initial testing was conducted to screen a variety of surfactants in researching for potential antimicrobial boosting agents. The initial testing followed the methodology as described in the Minimum Effective Concentration (“MEC”) Test Method described in the Test Methods section herein. To summarize, the MEC testing paired a variety of potential antimicrobial boosting agents with a variety of known antimicrobial agents to determine the MEC of the respective antimicrobial agent that must be used to provide an effective antimicrobial result, as described in further detail in the Test Methods section. The more positive the boosting characteristics of an antimicrobial boosting agent, then the lower the MEC that would be required for the paired antimicrobial agent. It is to be noted that the molarities listed in Table 1 are approximate values that were calculated based on the estimated activities of the ingredients and the molecular weights of the active ingredients. In instances where an exact activity was not available for an ingredient blend, the ingredient blend activity was estimated as the average of the upper and lower limits of the specification provided by the manufacturer of such blend. In instances where an exact molecular weight could not be calculated (for example, in compounds derived from a natural oil like coconut oil), the molecular weight of the active was estimated based on a weighted average of the molecular weights of the constituent species.
# The Minimum Effective Concentration Test Method discussed herein began by adding B. cepacia (ATCC 25416) culture at a final concentration of approximately 5×10^6 CFU/mL to the composition to be challenged. The challenged composition was then allowed to incubate at room temperature for 24 hours. After 24 hours, a preservative neutralizing broth was added to the mixture and measurements were subsequently taken to determine the concentration of B. cepacia still remaining after exposure to the test composition.
# The Minimum Effective Concentration was determined by completing the process described above on a series of compositions with the same concentration of antimicrobial boosting agent, but with different concentrations of antimicrobial agent. The Minimum Effective Concentration of antimicrobial agent for any given value of antimicrobial boosting agent was defined as the minimum concentration of antimicrobial agent required to reduce the concentration of B. cepacia to a level below the detection threshold for the test method, which was approximately 100 CFU/mL. In instances where multiple rounds of Minimum Effective Concentration testing were completed, the value reported is the mean of the Minimum Effective Concentration values generated by each individual series of tests.
Compound,MEC of Lactic Acid (Purac FCC 88) paired with the potential boosting agent,MEC of Hydroxyacetophenone (SymSave H) paired with the potential boosting agent,MEC of Caprylhydroxamic Acid (Zeastat) paired with the potential boosting agent,MEC of Sodium Benzoate paired with the potential boosting agent
"C[N+](C)(CCCS(=O)(=O)[O-])Cc1ccccc1 [Benzyl Sultaine, 3-(Benzyldimethylammonio)propanesulfonate]",40 mmol/L,–,–,–
"CCCCCCCC[N+](C)(C)CCCS(=O)(=O)[O-] [Caprylyl Sultaine, 3-(N,N-Dimethyloctylammonio)propanesulfonate inner salt]",40 mmol/L,–,–,–
CCCCCCCCCCCCCCCC[N+](C)(C)CC(=O)[O-] [Cetyl Betaine],40 mmol/L,–,–,–
"CCCCCCCCCC[N+](C)(C)CCCS(=O)(=O)[O-] [Decyl Sultaine, 3-(Decyldimethylammonio)-propanesulfonate inner salt]",30 mmol/L,10 mmol/L,–,–
C[N+](C)(CCO)CC(O)C[N+](C)(C)CCO.[Cl-].[Cl-] [Hydroxypropyl Bis-Hydroxyethyldimonium Chloride],50 mmol/L,–,–,–
CCCCCCCCCCCC[N+](C)(C)CC(O)CS(=O)(=O)[O-] (stereo not shown) [Lauryl Hydroxysultaine],17 mmol/L,<5 mmol/L,<2 mmol/L,<1 mmol/L
"CCCCCCCCCCCC[N+](C)(C)CCCS(=O)(=O)[O-] [Lauryl Sultaine, N-Dodecyl-N,N-dimethyl-3-ammonio-1-propanesulfonate]",20 mmol/L,10 mmol/L,–,–
"CCCCCCCCCCCCCC[N+](C)(C)CCCS(=O)(=O)[O-] [Myristyl Sultaine, 3-(N,N-Dimethylmyristylammonio)propanesulfonate]",40 mmol/L,–,–,–
CCCCCCCC[N+](C)(C)CC(=O)[O-] [Octyl Betaine],40 mmol/L,–,–,–
CCCCCCCC[N+](C)(C)[O-] [Octyldimethylamine Oxide],40 mmol/L,–,–,–
CCCCCCCCCCCC(=O)OC(C)C(=O)OC(C)C(=O)[O-].[Na+] (stereo not shown) [Sodium Lauroyl Lactylate],30 mmol/L,–,–,–
Lauramidopropyl Hydroxysultaine,30 mmol/L,–,–,–
Laureth-3 Phosphate,40 mmol/L,–,–,–
Lauryl Glucoside,>30 mmol/L,–,–,10 mmol/L
Sodium Laurylglucosides Hydroxypropylsulfonate,>50 mmol/L,–,–,–

# Same assay, conditions: no boosting agent; 24 hours at room temperature
Compound,MEC of Caprylhydroxamic Acid (Zeastat),MEC of Hydroxyacetophenone (SymSave H),MEC of Lactic Acid (Purac FCC 88),MEC of Sodium Benzoate
CCCCCCCC(=O)NO [Caprylhydroxamic Acid],10 mmol/L,–,–,–
O=C(CO)c1ccccc1 [Hydroxyacetophenone],–,20 mmol/L,–,–
CC(O)C(=O)O (stereo not shown) [Lactic Acid],–,–,60 mmol/L,–
O=C([O-])c1ccccc1.[Na+] [Sodium Benzoate],–,–,–,7.5 mmol/L
